# Laboratory results: patent EP2490021A1, “Modulators of PRR and GPCR signalling” (Biotempt B.V., priority 2011, dated 2012)
# Entries after “also recorded” stand apart in the source; their conditions may differ. Where a SMILES comes first, the peptide text is derived from it.
# What was measured:
# Type in all cases: cell-based, human
# neutrophils [1] = assay: Phosphoprotein array, LPS-stimulated neutrophils; settings: 1 µg/mL LPS, pre-stimulated with 20 ng/mL
# Procedure: (§1) Blood was drawn from healthy volunteers into tubes containing citrate as an anticoagulant. Neutrophils were isolated by using a Polymorphprep kit (Nicomed, Oslo, Norway) according to the manufacturer's instructions; monocytes were purified with magnetic beads (Miltenyi Biotech). The purity of the cells, as assessed by flow cytometry (anti-CD45, 14, DR, and CD66b), was > 93%. For each cell type, samples from two different donors were examined.
# (§2) 5x10^6 cells were incubated in the presence of 1 µg/mL LPS (E.coli O111:B4, Sigma-Aldrich) or pre-stimulated with 20 ng/mL of EA-230 (peptide AQGV) and then incubated in the presence of 1 µg/mL LPS for 0, 5, 15 and 30 minutes (37°C, 5% CO2). At the end of the incubation period, the cells were put on ice, and proteins were extracted using Phosphosafe reagent (Novagen), according to the recommendations of the manufacturer. The total protein concentration was measured using a conventional Lowry assay (Pierce).
# (§3) To determine the relative levels of protein phosphorylation, a human PhosphoKinase array (RnD Systems) was used according to the recommendations of the manufacturer. 200 µg of protein were used per array. Spot pixel density was determined for each protein and ratios to the controls (no LPS and no EA stimulation) were measured.
# FPR = assay: Kinase phosphorylation in PBMC-derived monocytes challenged with fMLP; settings: 1 µM fmlp, at both 20 ng/ml and 50 ng/ml
# Procedure: PMBC-derived monocytes were isolated from healthy volunteers (hPBMCs) according to routine procedures^1. Subsequently PMBC were incubated with 20 ng/ml peptide AQGV (Biotempt peptide, which was freshly prepared as a 20 mg/ml stock solution in bidistilled water) or treated with the cell culture medium alone for 10 min. hPMBC were challenged with: • 1) 2 µg/ml TLR-4 ligand LPS ^2 for 1 min, 5 min, 10 min and 20 min, • 2) 2 µg/ml NOD ligand peptidoglycan (PGN) for 1 min, 5 min, 10 min and 20 min, or • 3) 1 µM fmlp (formyl-Met-Leu-Phe) for 1 min, 5 min, 10 min and 20 min.
# (§4) Following stimulation, the phosphorylation status of p38MAPK, JNK, PKB, and P42/p44MAPK/ERK1,2 was analysed^3. Results were corrected for differences using co-measurement of β-actin^4.
# TLR-4 [2] = assay: Kinase phosphorylation in PBMC-derived monocytes challenged with TLR-4 ligand LPS; settings: 2 µg/ml LPS, at 20 ng/ml and at 50 ng/ml
# Procedure: (§5) PMBC-derived monocytes were isolated from healthy volunteers (hPBMCs) according to routine procedures^1. […]
# as §4
# TLR-4 [3] = assay: p38 MAPK phosphorylation in hPBMC challenged with LPS (Example 4); settings: 2 µg/ml LPS; for p38 MAPK phosphorylation: low concentrations of peptide, compared to control (LPS stimulated, no peptide added); for TLR-4 mediated signalling induced by LPS, p38 MAPK phosphorylation status: peptide at 20 ng/ml
# Procedure: (§6) Subsequently PMBC were incubated with 1.3, 3.2, 8, 20 and 50 ng/ml peptide AQGV , LQGV, AQG, LQG, QGV, AQ, LQ, GV or QG (peptide, which was freshly prepared as a 20 mg/ml stock solution in bidistilled water) or treated with the cell culture medium alone for 10 min.
# (§7) hPMBC were challenged with 2 µg/ml TLR-4 ligand LPS for 1 min, 5 min, 10 min and 20 min.
# TLR-4 [4] = assay: PKB phosphorylation in hPBMC challenged with LPS (Example 4); settings: 2 µg/ml LPS
# Procedure: as §6, §7
# NF-kB = NF-kB p50 and p65 subunit activity ELISA, LPS-stimulated neutrophils; settings: 1 µg/mL LPS 15 minutes, both concentrations, p=0.03 vs LPS alone
# Procedure: (§8) Blood was drawn from 2 healthy volunteers into tubes containing citrate as an anticoagulant. Neutrophils were isolated by using a Polymorphprep kit (Nicomed, Oslo, Norway) according to the manufacturer's instructions. The purity of the cells, as assessed by flow cytometry (anti-CD45, 14, DR, and CD66b), was > 93%.
# […] At the end of the incubation period, the cells were put on ice, and nuclear proteins were extracted using Nuclear Extraction Kit (Cayman chemicals, Ann Harbor, USA), according to the recommendations of the manufacturer. The total protein concentration was measured using a conventional Lowry assay (Pierce).
# P50 and p65 NF-kB subunit activity was determined by ELISA (Cayman chemicals). This assay allows the determination of the true NF-kB activity by measuring the binding of its subunits to specific consensus sequences. This assay is similar to the traditional EMSA, though more sensitive. 10 µg of proteins were used per assay. Analysis was performed in duplicate.
# monocytes = assay: Phosphoprotein array, LPS-stimulated monocytes; settings: 1 µg/mL LPS, pre-incubation with 20 ng/mL
# Procedure: as §1, §2, §3
# neutrophils [5] = assay: LPS-driven cytokine production by neutrophils; settings: 1 µg/mL LPS 24 hours, both concentrations (20 or 50 ng/mL), p=0.01 versus LPS
# Procedure: as §8
# 5x10^5 cells were incubated in the presence of 1 µg/mL LPS (E.coli O111:B4, Sigma-Aldrich) or pre-stimulated with 20 or 50 ng/mL of EA-230 (peptide AQGV) and then incubated in the presence of 1 µg/mL LPS for 24 hours (37°C, 5% CO2). At the end of the incubation period, supernatants were harvested and concentrations of TNF-α, IL-6, and IL-8 were measured by flow cytometry using Bender Flowcytomics kit (Bender Med systems, Burlingame, USA) according to the recommendations of the manufacturer. Concentrations of IL-10 were determined by ELISA (RnD Systems). Measurements were done in duplicate.
# NOD = assay: Kinase phosphorylation in PBMC-derived monocytes challenged with NOD ligand peptidoglycan; settings: 2 µg/ml PGN, at 50 ng/ml
# Procedure: as §5, §4
# [6] = low concentrations, i.e. below 20 ng/ml, compared to control (LPS stimulated, no peptide added)
structure (smiles),measurement,setting,value
CC(C)[C@H](NC(=O)CNC(=O)[C@H](CCC(N)=O)NC(=O)[C@H](C)N)C(=O)O [AQGV] (H-AQGV-OH),eNOS phosphorylation,neutrophils [1],increase
same,LPS-driven phosphorylation of CREB,neutrophils [1]; at 15 minutes,blunted
same,LPS-driven phosphorylation of ERK1/2,neutrophils [1]; at 15 minutes,blunted
same,LPS-driven phosphorylation of GSK 3a/b,neutrophils [1]; at 15 minutes,blunted
same,LPS-driven phosphorylation of MEK1/2,neutrophils [1]; at 15 minutes,blunted
same,LPS-driven phosphorylation of P38 MAPK,neutrophils [1]; at 15 minutes,blunted
same,FPR signalling induced by fMLP,FPR,slightly attenuated
same,"FPR signalling induced by fMLP, PKB phosphorylation",FPR,"induction of PKB phosphorylation was initially seen, followed by downregulation"
same,"FPR signalling induced by fMLP, p38MAPK phosphorylation",FPR,downregulation
same,"TLR-4 mediated signalling induced by LPS, JNK phosphorylation status",TLR-4 [2],reduced
same,"TLR-4 mediated signalling induced by LPS, P42/p44MAPK/ERK1,2 phosphorylation status",TLR-4 [2],reduced
same,"TLR-4 mediated signalling induced by LPS, PKB phosphorylation status",TLR-4 [2],reduced
same,"TLR-4 mediated signalling induced by LPS, p38MAPK phosphorylation status",TLR-4 [2],reduced
same,p38 MAPK phosphorylation,TLR-4 [3],already modulated
same,"TLR-4 mediated signalling induced by LPS, p38 MAPK phosphorylation status",TLR-4 [3],initial downregulation
same,"TLR-4 mediated signalling induced by LPS, PKB phosphorylation status",TLR-4 [4]; [6],already display a modulation
same,"TLR-4 mediated signalling induced by LPS, PKB phosphorylation status",TLR-4 [4]; peptide at 20 ng/ml,reduced
same,LPS induced NF-kB p50 activity,NF-kB,reduced this LPS induced activation
same,LPS induced NF-kB p65 activity,NF-kB,reduced this LPS induced activation
same,eNOS phosphorylation,monocytes,strongly stimulated
same,LPS-driven phosphorylation of AMPK,monocytes; at 15 minutes,prevented this effect
same,LPS-driven phosphorylation of ERK1/2,monocytes; at 15 minutes,prevented this effect
same,LPS-driven phosphorylation of JNK,monocytes; at 15 minutes,prevented this effect
same,LPS-driven phosphorylation of MSK,monocytes; at 15 minutes,prevented this effect
same,LPS-driven phosphorylation of P38 MAPK,monocytes; at 15 minutes,prevented this effect
same,LPS-driven phosphorylation of PKB/AKT,monocytes; at 15 minutes,prevented this effect
same,LPS induced production of IL-6,neutrophils [5],reduced the cytokine production almost to control values
same,LPS induced production of IL-8,neutrophils [5],reduced the cytokine production almost to control values
same,LPS induced production of IL-10,neutrophils [5],reduced the cytokine production almost to control values
same,LPS induced production of TNF-α,neutrophils [5],reduced the cytokine production almost to control values
same,"NOD-signalling induced by peptidoglycan, JNK phosphorylation status",NOD,seemingly stimulates
same,"NOD-signalling induced by peptidoglycan, P42/p44MAPK/ERK1,2 phosphorylation status",NOD,seemingly stimulates
same,"NOD-signalling induced by peptidoglycan, PKB phosphorylation status",NOD,seemingly stimulates
same,"NOD-signalling induced by peptidoglycan, p38MAPK phosphorylation status",NOD,seemingly stimulates
CC(C)C[C@H](N)C(=O)N[C@@H](CCC(N)=O)C(=O)NCC(=O)N[C@H](C(=O)O)C(C)C [LQGV] (H-LQGV-OH),p38 MAPK phosphorylation,TLR-4 [3],already modulated
same,"TLR-4 mediated signalling induced by LPS, p38 MAPK phosphorylation status",TLR-4 [3],initial downregulation
same,"TLR-4 mediated signalling induced by LPS, PKB phosphorylation status",TLR-4 [4]; peptide at 20 ng/ml,reduced; also recorded: significantly downregulated
CC(C)C[C@H](N)C(=O)N[C@@H](CCC(N)=O)C(=O)O [LQ] (H-Leu-Gln-OH),"TLR-4 mediated signalling induced by LPS, PKB phosphorylation status",TLR-4 [4]; [6],already display a modulation
same,"TLR-4 mediated signalling induced by LPS, PKB phosphorylation status",TLR-4 [4]; peptide at 20 ng/ml,inhibited
CC(C)[C@H](NC(=O)CNC(=O)[C@@H](N)CCC(N)=O)C(=O)O [QGV] (H-Gln-Gly-Val-OH),p38 MAPK phosphorylation,TLR-4 [3],already modulated
same,"TLR-4 mediated signalling induced by LPS, PKB phosphorylation status",TLR-4 [4]; [6],already display a modulation
same,"TLR-4 mediated signalling induced by LPS, PKB phosphorylation status",TLR-4 [4]; peptide at 20 ng/ml,"at least initial, inhibition"
C[C@H](N)C(=O)N[C@@H](CCC(N)=O)C(=O)O [AQ] (H-Ala-Gln-OH),p38 MAPK phosphorylation,TLR-4 [3],already modulated
same,"TLR-4 mediated signalling induced by LPS, p38 MAPK phosphorylation status",TLR-4 [3],slight overall downregulation
same,"TLR-4 mediated signalling induced by LPS, PKB phosphorylation status",TLR-4 [4]; [6],already display a modulation
same,"TLR-4 mediated signalling induced by LPS, PKB phosphorylation status",TLR-4 [4]; peptide at 20 ng/ml,inhibited
NC(=O)CC[C@H](N)C(=O)NCC(=O)O [QG] (H-Gln-Gly-OH),p38 MAPK phosphorylation,TLR-4 [3],already modulated
same,"TLR-4 mediated signalling induced by LPS, p38 MAPK phosphorylation status",TLR-4 [3],slight upregulation
CC(C)C[C@H](N)C(=O)N[C@@H](CCC(N)=O)C(=O)NCC(=O)O [LQG] (H-Leu-Gln-Gly-OH),p38 MAPK phosphorylation,TLR-4 [3],already modulated
same,"TLR-4 mediated signalling induced by LPS, p38 MAPK phosphorylation status",TLR-4 [3],initial downregulation
